# Source: patent US20250270180A1, “MEK INHIBITORS AND THERAPEUTIC USES THEREOF” (Immuneering Corporation, priority 2020, published 2025)
# Tests used:
# A549 pERK = assay: A549-pERK, 2 h (quantitative Western, Jess); type: cell-based; settings: Homo sapiens, A549, 2 h, phospho:total ratio normalized to DMSO control; for activity at 0.01 µM: 10 nM
# Method: (§1) A549 or […] cells were treated in duplicate for two hours with compounds at varying concentrations. After two hours, the cells were lysed, snap frozen, and stored at −80° C. After storage, the lysate was quantified with the Bradford assay. Before the lysates were prepared to run on the Jess, the lysates were diluted to 1 mg/mL for pERK analysis and 1.5 mg/mL pMEK analysis using quantitative Western blotting. ERK and MEK phosphorylation levels were estimated by taking the ratio of phospho-protein to total protein and normalizing to the DMSO control. The results of this study are described in Tables 14-16.
# [1] = tested on: A549 CRAF BP (MEK phosphorylation); assay: A549-CRAF BP 100 nM, 2 h (pMEK); type: cell-based; settings: Homo sapiens, A549, 2 h, phospho:total ratio normalized to DMSO control
# Method: as §1
# Plasma stability, human = type: in vitro ADME; settings: 2 μM
# [2] = Plasma stability, beagle dog; type: in vitro ADME; settings: 2 μM
# [3] = Plasma stability, CD-1 mouse; type: in vitro ADME; settings: 2 μM
# CYP450 2C19 = CYP450 2C19 (Homo sapiens, UniProt P33261); assay: CYP450 panel, 2C19; settings: 10 μM; substrate mephenytoin
# CYP450 2C19, sequence (P33261 whole entry): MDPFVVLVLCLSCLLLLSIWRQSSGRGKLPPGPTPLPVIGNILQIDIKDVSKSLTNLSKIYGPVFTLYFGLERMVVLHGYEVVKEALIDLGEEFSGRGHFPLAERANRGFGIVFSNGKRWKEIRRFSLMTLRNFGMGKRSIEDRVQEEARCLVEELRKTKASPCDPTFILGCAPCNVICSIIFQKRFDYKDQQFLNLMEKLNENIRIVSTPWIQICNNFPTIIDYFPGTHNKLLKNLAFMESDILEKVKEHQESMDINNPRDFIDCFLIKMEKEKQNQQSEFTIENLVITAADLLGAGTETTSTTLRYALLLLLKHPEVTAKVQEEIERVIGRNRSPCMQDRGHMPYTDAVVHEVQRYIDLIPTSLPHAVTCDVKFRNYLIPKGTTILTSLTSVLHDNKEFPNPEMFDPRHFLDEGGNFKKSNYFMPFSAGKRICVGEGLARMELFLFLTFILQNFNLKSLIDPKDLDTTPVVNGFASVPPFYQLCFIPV
# [4] = Absorption & efflux: Caco-2 permeability; settings: human
Compound,activity at 0.01 µM (A549 pERK) [%],activity at 0.1 µM [1] [%],other results
CNS(=O)(=O)Nc1cccc(Cc2c(CN(C)CC3CC3)c3ccc(OC(=O)N(C)C)cc3oc2=O)c1F [Compound 84],83.2,87.3,–
CNS(=O)(=O)Nc1cccc(Cc2c(CN(C)c3ccc(Cl)cc3)c3ccc(OC(=O)N(C)C)cc3oc2=O)c1F [Compound 97],56.5,52.1,–
CCCN(C)Cc1c(Cc2cccc(NS(=O)(=O)NC)c2F)c(=O)oc2cc(OC(=O)N(C)C)ccc12 [Compound 81],57.6,78.3,–
CNS(=O)(=O)Nc1cccc(Cc2c(CN(C)Cc3ccccc3)c3ccc(OC(=O)N(C)C)cc3oc2=O)c1F [Compound 80],56.4,56.1,–
CNS(=O)(=O)Nc1cccc(Cc2c(CN(C)C)c3cc(Cl)c(OC(=O)N(C)C)cc3oc2=O)c1F [Compound 24],42.4,55.9,–
CNS(=O)(=O)Nc1cccc(Cc2c(C)c3cc(Cl)c(OC(=O)N(C)C)cc3oc2=O)c1F [Compound 109],4.51,41.9,–
Cc1c(Cc2cccc(NS(=O)(=O)C3CCC3)c2F)c(=O)oc2cc(OC(=O)N(C)C)ccc12 [Compound 118],21.1,39.1,–
CNS(=O)(=O)Nc1nccc(Cc2c(C)c3cc(Cl)c(OC(=O)N(C)C)cc3oc2=O)c1F [Compound 111],4.63,48.6,–
Cc1c(Cc2ccnc(NS(=O)(=O)C3CC3)c2F)c(=O)oc2cc(OC(=O)N(C)C)ccc12 [Compound 112],46.3,52.9,–
CC(C)[N+](C)(CCOC(=O)C1c2ccccc2Oc2ccccc21)C(C)C [Propantheline],–,–,"Human (% Reamining @2 hour) (Plasma stability, human): 5.7%; Beagle Dog (% Reamining @2 hour) [2]: 58.4%; CD-1 Mouse (% Reamining @2 hour) [3]: 27.1%"
C#CCNCCc1c(Cc2cccc(NS(=O)(=O)NC)c2F)c(=O)oc2cc(OC(=O)N(C)C)ccc12 [Compound 183],32.4,65.9,activity at 10 µM (A549 pERK): 0.82%
Cc1c(Cc2ccnc(NS(=O)(=O)C3CCC3)c2F)c(=O)oc2cc(OC(=O)N(C)C)ccc12 [Compound 125],54.4,41.7,–
CNS(=O)(=O)Nc1cccc(Cc2c(CNCC(F)(F)F)c3ccc(OC(=O)N(C)C)cc3oc2=O)c1F [Compound 75],–,66.5,–
CC[C@H](C)C(=O)O[C@H]1C[C@@H](C)C=C2C=C[C@H](C)[C@H](CC[C@@H]3C[C@@H](O)CC(=O)O3)[C@H]21 [Lovastatin],–,–,"Human (% Reamining @2 hour) (Plasma stability, human): 81.8%; Beagle Dog (% Reamining @2 hour) [2]: 94.1%; CD-1 Mouse (% Reamining @2 hour) [3]: 0.6%"
CCS(=O)(=O)Nc1cccc(Cc2c(C)c3ccc(OC(=O)N(C)C)cc3oc2=O)c1F [Compound 107],18,39.9,–
CNS(=O)(=O)Nc1cccc(Cc2c(CN(C)C3CCC3)c3ccc(OC(=O)N(C)C)cc3oc2=O)c1F [Compound 86],96.4,53.2,–
CCS(=O)(=O)Nc1cccc(Cc2c(CN(C)C)c3cc(Cl)c(OC(=O)N(C)C)cc3oc2=O)c1F [Compound 132],62.6,57.8,–
CNS(=O)(=O)Nc1cccc(Cc2c(CNCC#N)c3ccc(OC(=O)N(C)C)cc3oc2=O)c1F [Compound 33],55.4,51.4,–
CNS(=O)(=O)Nc1cccc(Cc2c(CN(C)CC3CCC3)c3ccc(OC(=O)N(C)C)cc3oc2=O)c1F [Compound 88],142,53.6,–
CNS(=O)(=O)Nc1cccc(Cc2c(CN(C)CC(C)C)c3ccc(OC(=O)N(C)C)cc3oc2=O)c1F [Compound 78],78.6,64.2,–
CNS(=O)(=O)Nc1cccc(Cc2c(CN(C)CC#N)c3ccc(OC(=O)N(C)C)cc3oc2=O)c1F [Compound 87],63.8,95.8,–
CN(C)C(=O)Oc1ccc2c(CN3CCNCC3)c(Cc3ccnc(NS(=O)(=O)C4CC4)c3F)c(=O)oc2c1 [Compound 150],47.4,90.2,–
CNS(=O)(=O)Nc1cccc(Cc2c(CN(C)c3ccccc3)c3ccc(OC(=O)N(C)C)cc3oc2=O)c1F [Compound 79],–,45.2,–
CNS(=O)(=O)Nc1cccc(Cc2c(CN3CC(OC)C3)c3ccc(OC(=O)N(C)C)cc3oc2=O)c1F [Compound 74],75.3,59.2,–
CNS(=O)(=O)Nc1cccc(Cc2c(CN(C)C)c3ccc(OC(=O)N4CCC4)cc3oc2=O)c1F [Compound 128],66.3,37.7,–

Compound,activity at 0.01 µM (A549 pERK) [%],activity at 0.1 µM [1] [%],other results
COc1ccc2[nH]c([S+]([O-])Cc3ncc(C)c(OC)c3C)nc2c1 (centres unmarked) [Omeprazole],–,–,2C19* (CYP450 2C19): 61.6
CCS(=O)(=O)Nc1cccc(Cc2c(CN3CCNCC3)c3cc(Cl)c(OC(=O)N(C)C)cc3oc2=O)c1F [Compound 147],21.7,46.4,–
CNS(=O)(=O)Nc1cccc(Cc2c(CNc3cncs3)c3ccc(OC(=O)N(C)C)cc3oc2=O)c1F [Compound 91],74.6,84.2,–
Cc1c(Cc2cccc(NS(=O)(=O)C(C)C)c2F)c(=O)oc2cc(OC(=O)N(C)C)ccc12 [Compound 115],13.5,39.2,–
CNS(=O)(=O)Nc1cccc(Cc2c(CN3CCNCC3)c3cc(Cl)c(OC(=O)N(C)C)cc3oc2=O)c1F [Compound 21],20.4,47.9,–
CNS(=O)(=O)Nc1cccc(Cc2c(CN(C)C)c3cc(F)c(OC(=O)N(C)C)cc3oc2=O)c1F [Compound 25],66.2,71,–
CCS(=O)(=O)Nc1nccc(Cc2c(CN(C)C)c3ccc(OC(=O)N(C)C)cc3oc2=O)c1F [Compound 148],49.6,56.5,–
CNS(=O)(=O)Nc1nccc(Cc2c(CN(C)C)c3cc(F)c(OC(=O)N(C)C)cc3oc2=O)c1F [Compound 140],65,70.3,–
CNC(=C[N+](=O)[O-])NCCSCc1ccc(CN(C)C)o1 [Ranitidine],–,–,"Papp A→B at 2 h, 10 μM [4]: < 1 ×10⁻⁶ cm/s"
CNS(=O)(=O)Nc1cccc(Cc2c(CN3CC(Cl)C3)c3ccc(OC(=O)N(C)C)cc3oc2=O)c1F [Compound 145],104,–,–
CNS(=O)(=O)Nc1cccc(Cc2c(CN3CC4(CCC4)C3)c3ccc(OC(=O)N(C)C)cc3oc2=O)c1F [Compound 153],50.2,54.1,–
CCN(CC)Cc1c(Cc2cccc(NS(=O)(=O)NC)c2F)c(=O)oc2cc(OC(=O)N(C)C)ccc12 [Compound 73],77.7,33.9,–
CCS(=O)(=O)Nc1nccc(Cc2c(C)c3ccc(OC(=O)N(C)C)cc3oc2=O)c1F [Compound 119],64.8,66.1,–
CNS(=O)(=O)Nc1cccc(Cc2c(C)c3cc(C)c(OC(=O)N(C)C)cc3oc2=O)c1F [Compound 108],5.78,47.9,–
CNS(=O)(=O)Nc1cccc(Cc2c(CN(C)C3CC3)c3ccc(OC(=O)N(C)C)cc3oc2=O)c1F [Compound 82],64.9,72.3,–
CNS(=O)(=O)Nc1cccc(Cc2c(CN3CCN(C(C)C)CC3)c3ccc(OC(=O)N(C)C)cc3oc2=O)c1F [Compound 62],73,–,–
CNS(=O)(=O)Nc1nccc(Cc2c(C)c3cc(C)c(OC(=O)N(C)C)cc3oc2=O)c1F [Compound 110],5.92,56.6,–
Cc1c(Cc2ccnc(NS(=O)(=O)C(C)C)c2F)c(=O)oc2cc(OC(=O)N(C)C)ccc12 [Compound 114],36.6,59.9,–
CNS(=O)(=O)Nc1cccc(Cc2c(CC(=O)Nc3ccon3)c3ccc(OC(=O)N(C)C)cc3oc2=O)c1F [Compound 201],119,–,–
CNS(=O)(=O)Nc1cccc(Cc2c(CNCC(=O)N(C)CC#N)c3ccc(OC(=O)N(C)C)cc3oc2=O)c1F [Compound 217],96.7,–,activity at 10 µM (A549 pERK): 11.2%
Cc1c(Cc2cccc(NS(=O)(=O)C3CC3)c2F)c(=O)oc2cc(OC(=O)N(C)C)ccc12 [Compound 113],24.7,48,–
CNS(=O)(=O)Nc1cccc(Cc2c(CNc3ccnn3C)c3ccc(OC(=O)N(C)C)cc3oc2=O)c1F [Compound 96],102,–,–
CNS(=O)(=O)Nc1cccc(Cc2c(CNc3ccsc3)c3ccc(OC(=O)N(C)C)cc3oc2=O)c1F [Compound 90],72.4,71,–
CNS(=O)(=O)Nc1cccc(Cc2c(CC(=O)N(C)C)c3ccc(OC(=O)N(C)C)cc3oc2=O)c1F [Compound 196],106,–,–
